# Results: patent US6875743B1, “Cell adhesion inhibitors” (Biogen, Inc., priority 1996, dated 2005)
# Numbered stars: 1 amine (or outer) side, 2 acyl side, 3 side chain; on linkers, the order of the positions; unused ones are H or OH. Square brackets hold non-standard residues; d marks the D form. Peptide text beside a SMILES is read from it. * marks the point of attachment. Fmoc = O=C(OCC1c2ccccc2-c2ccccc21)*; X2 = Cc1ccccc1NC(=O)Nc1ccc(CN*)cc1; X1 = O=C(Cc1ccc(N[*:1])cc1)[*:2]; NH(2-Me-phenyl) = Cc1ccccc1N*; PhAc = O=C(Cc1ccccc1)*; Aib = CC(C)(N)C(=O)O; CO = O=C([*:1])[*:2]; X3 = Cc1cccc(N*)n1
# Target: T1, VLA4 (Homo sapiens, UniProt P05556+P13612)
# T1 construct: endogenous in cells; host or cells: Ramos cells
# Experiment: Inhibition of VLA4-dependent adhesion to BSA-CS1
# Assay type: cell-based
# Conditions: not given
# T1 sequence (P13612 34-1032): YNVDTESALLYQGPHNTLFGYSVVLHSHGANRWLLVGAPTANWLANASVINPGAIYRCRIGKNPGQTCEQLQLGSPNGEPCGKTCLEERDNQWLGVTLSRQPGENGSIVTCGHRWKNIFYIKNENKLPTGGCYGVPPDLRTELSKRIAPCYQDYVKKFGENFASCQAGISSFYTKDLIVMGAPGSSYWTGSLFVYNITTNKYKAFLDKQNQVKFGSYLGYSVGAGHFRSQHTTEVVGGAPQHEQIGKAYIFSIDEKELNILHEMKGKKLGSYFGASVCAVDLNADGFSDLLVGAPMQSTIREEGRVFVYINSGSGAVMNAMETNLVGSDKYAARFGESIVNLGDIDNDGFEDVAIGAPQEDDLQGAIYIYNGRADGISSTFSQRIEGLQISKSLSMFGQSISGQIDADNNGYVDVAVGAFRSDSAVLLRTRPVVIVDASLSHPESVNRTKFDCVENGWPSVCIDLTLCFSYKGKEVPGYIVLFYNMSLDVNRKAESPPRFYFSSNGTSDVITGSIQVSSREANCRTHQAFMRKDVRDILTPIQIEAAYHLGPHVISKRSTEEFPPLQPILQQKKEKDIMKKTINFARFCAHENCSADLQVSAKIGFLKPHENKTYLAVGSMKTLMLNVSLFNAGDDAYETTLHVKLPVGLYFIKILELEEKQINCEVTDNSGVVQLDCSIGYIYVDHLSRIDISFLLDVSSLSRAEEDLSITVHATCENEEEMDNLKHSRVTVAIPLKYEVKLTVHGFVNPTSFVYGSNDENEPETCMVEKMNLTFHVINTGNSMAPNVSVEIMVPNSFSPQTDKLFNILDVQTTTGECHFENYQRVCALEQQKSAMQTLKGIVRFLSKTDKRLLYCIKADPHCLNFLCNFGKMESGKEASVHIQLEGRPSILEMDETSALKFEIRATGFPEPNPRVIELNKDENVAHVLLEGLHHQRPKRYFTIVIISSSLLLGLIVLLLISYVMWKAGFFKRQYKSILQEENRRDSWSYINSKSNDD
# T1 sequence (P05556 21-798): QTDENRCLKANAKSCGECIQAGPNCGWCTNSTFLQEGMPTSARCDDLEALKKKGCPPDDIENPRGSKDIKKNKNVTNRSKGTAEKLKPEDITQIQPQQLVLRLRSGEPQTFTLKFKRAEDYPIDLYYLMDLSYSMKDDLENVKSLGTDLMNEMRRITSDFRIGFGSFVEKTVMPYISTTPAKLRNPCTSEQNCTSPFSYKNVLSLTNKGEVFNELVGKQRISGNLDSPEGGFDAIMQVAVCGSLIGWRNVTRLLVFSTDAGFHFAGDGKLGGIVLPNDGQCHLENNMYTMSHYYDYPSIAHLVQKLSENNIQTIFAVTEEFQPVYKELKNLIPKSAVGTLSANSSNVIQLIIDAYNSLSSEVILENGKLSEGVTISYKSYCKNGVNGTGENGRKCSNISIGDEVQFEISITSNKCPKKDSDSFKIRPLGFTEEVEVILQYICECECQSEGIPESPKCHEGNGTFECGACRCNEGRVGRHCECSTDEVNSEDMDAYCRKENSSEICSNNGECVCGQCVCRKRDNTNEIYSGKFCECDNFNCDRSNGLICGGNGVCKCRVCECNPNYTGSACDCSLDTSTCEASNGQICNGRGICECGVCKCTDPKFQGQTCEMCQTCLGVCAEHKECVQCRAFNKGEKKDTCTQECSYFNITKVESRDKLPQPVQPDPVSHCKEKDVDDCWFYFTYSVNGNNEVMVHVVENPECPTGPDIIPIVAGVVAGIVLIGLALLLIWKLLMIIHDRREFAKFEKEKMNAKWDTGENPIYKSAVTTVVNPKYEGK
row,SMILES,IC50
1,Cc1ccccc1NC(=O)Nc1ccc(CC(=O)N[C@@H](CC(C)C)C(=O)N[C@@H](CC(=O)O)C(=O)N[C@H](C(=O)N2CCC[C@H]2C(=O)N[C@@H](CO)C(=O)N[C@H](C(=O)O)[C@@H](C)O)C(C)C)cc1 [Compound 338] ({NH(2-Me-phenyl)-CO}-[X1]LDVPST-OH),< 0.05 µM

# Same assay, conditions: binding of BCECF-labelled Ramos cells to BSA-CS1 coated wells, 2 mM MnCl2; read-out: IC50
row,IC50,SMILES
1,< 0.05 µM,Cc1ccccc1NC(=O)Nc1ccc(CC(=O)N[C@@H](CO)C(=O)N[C@@H](CC(=O)O)C(=O)N[C@H](C(N)=O)C(C)C)cc1 [Compound 277]
2,< 0.05 µM,Cc1ccccc1NC(=O)Nc1ccc(CC(=O)N[C@@H](CO)C(=O)N[C@@H](CC(=O)O)C(=O)N[C@H](CC(C)C)C(N)=O)cc1 [Compound 278]
3,< 0.05 µM,Cc1ccccc1NC(=O)Nc1ccc(CC(=O)N[C@@H](CO)C(=O)N[C@@H](CC(=O)O)C(=O)N[C@@H](CCC(=O)O)C(N)=O)cc1 [Compound 279]
4,< 0.05 µM,Cc1ccccc1NC(=O)Nc1ccc(CC(=O)N[C@@H](CO)C(=O)N[C@@H](CC(=O)O)C(=O)N[C@H](C(N)=O)[C@@H](C)O)cc1 [Compound 280]
5,< 0.05 µM,CSCC[C@H](NC(=O)[C@H](CC(=O)O)NC(=O)[C@H](CO)NC(=O)Cc1ccc(NC(=O)Nc2ccccc2C)cc1)C(N)=O [Compound 281]
6,< 0.05 µM,Cc1ccccc1NC(=O)Nc1ccc(CC(=O)N[C@@H](CO)C(=O)N[C@@H](CC(=O)O)C(=O)N[C@H](CC(N)=O)C(N)=O)cc1 [Compound 282]
7,< 0.05 µM,Cc1ccccc1NC(=O)Nc1ccc(CC(=O)N[C@@H](CO)C(=O)N[C@@H](CC(=O)O)C(=O)N[C@H](CCC(=O)O)C(N)=O)cc1 [Compound 283]
8,< 0.05 µM,Cc1ccccc1NC(=O)Nc1ccc(CC(=O)N[C@@H](CO)C(=O)N[C@@H](CC(=O)O)C(=O)N[C@@H](Cc2c[nH]c3ccccc23)C(N)=O)cc1 [Compound 284]
9,< 0.05 µM,Cc1ccccc1NC(=O)Nc1ccc(CC(=O)N[C@@H](CO)C(=O)N[C@@H](CC(=O)O)C(=O)N[C@H](CO)C(N)=O)cc1 [Compound 285]
10,< 0.05 µM,Cc1ccccc1NC(=O)Nc1ccc(CC(=O)N[C@H](CC(C)C)C(=O)N[C@@H](CC(=O)O)C(=O)N[C@@H](CC(=O)O)C(N)=O)cc1 [Compound 286]
11,< 0.05 µM,Cc1ccccc1NC(=O)Nc1ccc(CC(=O)N[C@H](CC(C)C)C(=O)N[C@@H](CC(=O)O)C(=O)N[C@@H](CC(C)C)C(N)=O)cc1 [Compound 287]
12,< 0.05 µM,Cc1ccccc1NC(=O)Nc1ccc(CC(=O)N[C@H](CC(C)C)C(=O)N[C@@H](CC(=O)O)C(=O)N[C@H](C(N)=O)C(C)C)cc1 [Compound 288]
13,< 0.05 µM,Cc1ccccc1NC(=O)Nc1ccc(CC(=O)N[C@H](CC(C)C)C(=O)N[C@@H](CC(=O)O)C(=O)N[C@H](CC(C)C)C(N)=O)cc1 [Compound 289]
14,< 0.05 µM,Cc1ccccc1NC(=O)Nc1ccc(CC(=O)N[C@H](CC(C)C)C(=O)N[C@@H](CC(=O)O)C(=O)N[C@@H](CCC(=O)O)C(N)=O)cc1 [Compound 290]
15,< 0.05 µM,Cc1ccccc1NC(=O)Nc1ccc(CC(=O)N[C@H](CC(C)C)C(=O)N[C@@H](CC(=O)O)C(=O)N[C@H](C(N)=O)[C@@H](C)O)cc1 [Compound 291]
16,< 0.05 µM,CSCC[C@H](NC(=O)[C@H](CC(=O)O)NC(=O)[C@@H](CC(C)C)NC(=O)Cc1ccc(NC(=O)Nc2ccccc2C)cc1)C(N)=O [Compound 292]
17,< 0.05 µM,Cc1ccccc1NC(=O)Nc1ccc(CC(=O)N[C@H](CC(C)C)C(=O)N[C@@H](CC(=O)O)C(=O)N[C@H](CC(N)=O)C(N)=O)cc1 [Compound 293]
18,< 0.05 µM,Cc1ccccc1NC(=O)Nc1ccc(CC(=O)N[C@H](CC(C)C)C(=O)N[C@@H](CC(=O)O)C(=O)N[C@H](CCC(=O)O)C(N)=O)cc1 [Compound 294]
19,< 0.05 µM,Cc1ccccc1NC(=O)Nc1ccc(CC(=O)N[C@H](CC(C)C)C(=O)N[C@@H](CC(=O)O)C(=O)N[C@@H](Cc2c[nH]c3ccccc23)C(N)=O)cc1 [Compound 295]
20,< 0.05 µM,Cc1ccccc1NC(=O)Nc1ccc(CC(=O)NC(CC(C)C)C(=O)NC(CC(=O)O)C(=O)NC(CO)C(N)=O)cc1 (stereo not shown) [Compound 296]
21,< 0.05 µM,Cc1ccccc1NC(=O)Nc1ccc(CC(=O)N[C@@H](CCC(N)=O)C(=O)N[C@@H](CC(=O)O)C(=O)N[C@@H](CC(=O)O)C(N)=O)cc1 [Compound 297]
22,< 0.05 µM,Cc1ccccc1NC(=O)Nc1ccc(CC(=O)N[C@@H](CCC(N)=O)C(=O)N[C@@H](CC(=O)O)C(=O)N[C@@H](CC(C)C)C(N)=O)cc1 [Compound 298]
23,< 0.05 µM,Cc1ccccc1NC(=O)Nc1ccc(CC(=O)N[C@@H](CCC(N)=O)C(=O)N[C@@H](CC(=O)O)C(=O)N[C@H](C(N)=O)C(C)C)cc1 [Compound 299]
24,< 0.05 µM,Cc1ccccc1NC(=O)Nc1ccc(CC(=O)N[C@@H](CCC(N)=O)C(=O)N[C@@H](CC(=O)O)C(=O)N[C@H](CC(C)C)C(N)=O)cc1 [Compound 300]
25,< 0.05 µM,Cc1ccccc1NC(=O)Nc1ccc(CC(=O)N[C@@H](CCC(N)=O)C(=O)N[C@@H](CC(=O)O)C(=O)N[C@@H](CCC(=O)O)C(N)=O)cc1 [Compound 301]
26,< 0.05 µM,Cc1ccccc1NC(=O)Nc1ccc(CC(=O)N[C@@H](CCC(N)=O)C(=O)N[C@@H](CC(=O)O)C(=O)N[C@H](C(N)=O)[C@@H](C)O)cc1 [Compound 302]

row,IC50,SMILES
1,< 0.05 µM,CSCC[C@H](NC(=O)[C@H](CC(=O)O)NC(=O)[C@H](CCC(N)=O)NC(=O)Cc1ccc(NC(=O)Nc2ccccc2C)cc1)C(N)=O [Compound 303]
2,< 0.05 µM,Cc1ccccc1NC(=O)Nc1ccc(CC(=O)N[C@@H](CCC(N)=O)C(=O)N[C@@H](CC(=O)O)C(=O)N[C@H](CCC(=O)O)C(N)=O)cc1 [Compound 305]
3,< 0.05 µM,Cc1ccccc1NC(=O)Nc1ccc(CC(=O)N[C@@H](CCC(N)=O)C(=O)N[C@@H](CC(=O)O)C(=O)N[C@@H](Cc2c[nH]c3ccccc23)C(N)=O)cc1 [Compound 306]
4,< 0.05 µM,Cc1ccccc1NC(=O)Nc1ccc(CC(=O)NC(CCC(N)=O)C(=O)NC(CC(=O)O)C(=O)NC(CO)C(N)=O)cc1 (stereo not shown) [Compound 307]
5,< 0.05 µM,CSCC[C@H](NC(=O)Cc1ccc(NC(=O)Nc2ccccc2C)cc1)C(=O)N[C@@H](CCC(=O)O)C(=O)N[C@@H](CC(=O)O)C(N)=O [Compound 308]
6,< 0.05 µM,CSCC[C@H](NC(=O)Cc1ccc(NC(=O)Nc2ccccc2C)cc1)C(=O)N[C@@H](CCC(=O)O)C(=O)N[C@H](C(N)=O)C(C)C [Compound 309]
7,< 0.05 µM,Cc1ccccc1NC(=O)Nc1ccc(CC(=O)N[C@@H](CC(C)C)C(=O)N[C@@H](CCC(=O)O)C(=O)N[C@@H](CC(=O)O)C(N)=O)cc1 [Compound 310]
8,< 0.05 µM,Cc1ccccc1NC(=O)Nc1ccc(CC(=O)N[C@@H](CC(C)C)C(=O)N[C@@H](CCC(=O)O)C(=O)N[C@H](C(N)=O)C(C)C)cc1 [Compound 311]
9,< 0.05 µM,Cc1ccccc1NC(=O)Nc1ccc(CC(=O)N2CCC[C@H]2C(=O)N[C@@H](CCC(=O)O)C(=O)N[C@@H](CC(=O)O)C(N)=O)cc1 [Compound 312]
10,< 0.05 µM,Cc1ccccc1NC(=O)Nc1ccc(CC(=O)N2CCC[C@H]2C(=O)N[C@@H](CCC(=O)O)C(=O)N[C@H](C(N)=O)C(C)C)cc1 [Compound 313]
11,< 0.05 µM,Cc1ccccc1NC(=O)Nc1ccc(CC(=O)N[C@H](C(=O)N[C@@H](CCC(=O)O)C(=O)N[C@@H](CC(=O)O)C(N)=O)[C@@H](C)O)cc1 [Compound 314]
12,< 0.05 µM,Cc1ccccc1NC(=O)Nc1ccc(CC(=O)NC(CC(C)C)C(=O)NC(CC(=O)O)C(=O)NC(C(=O)N2CCOCC2)C(C)C)cc1 (stereo not shown) [Compound 329]
13,> 10 µM,COC(=O)[C@@H](NC(=O)[C@H](CC(=O)O)N1CCC(NC(=O)OCc2ccccc2)C1=O)C(C)C (stereo partly shown) [Compound 334]
14,> 10 µM,COC(=O)[C@@H](NC(=O)[C@H](CC(=O)O)N1CCC(NC(=O)CCc2ccc(O)cc2)C1=O)C(C)C (stereo partly shown) [Compound 335]
15,< 0.05 µM,Cc1ccccc1NC(=O)Nc1ccc(CC(=O)N[C@@H](CC(C)C)C(=O)N[C@@H](CC(=O)O)C(=O)N[C@H](C(=O)N2CCC[C@H]2C(=O)N[C@@H](CO)C(=O)O)C(C)C)cc1 [Compound 337] ({NH(2-Me-phenyl)-CO}-[X1]LDVPS-OH)
16,> 10 µM,Cc1ccccc1NC(=O)Nc1ccc(CC(=O)N[C@H](C(=O)N[C@@H](CC(C)C)C(=O)N2CCC[C@H]2C(=O)N[C@@H](CC(=O)O)C(=O)O)C(C)C)cc1 [Compound 339] ({NH(2-Me-phenyl)-CO}-[X1]VLPD-OH)
17,> 10 µM,Cc1ccccc1NC(=O)Nc1ccc(CC(=O)N[C@@H](CC(C)C)C(=O)N2CCC[C@H]2C(=O)N[C@H](C(=O)N[C@@H](CC(=O)O)C(=O)O)C(C)C)cc1 [Compound 341] ({NH(2-Me-phenyl)-CO}-[X1]LPVD-OH)
18,> 10 µM,Cc1ccccc1NC(=O)Nc1ccc(CC(=O)N2CCC[C@H]2C(=O)N[C@@H](CC(=O)O)C(=O)O)cc1 [Compound 342]
19,> 10 µM,CCC(C)C(NC(=O)C(CC(=O)O)NC(=O)C(NC(=O)C1CCCN1)C(C)C)C(=O)NCc1ccc(NC(=O)Nc2ccccc2C)cc1 (stereo not shown) [Compound 343] (H-PVDI-X2; configuration not given here)
20,> 10 µM,CC[C@H](C)[C@H](NC(=O)[C@@H](CC(=O)O)NC(=O)[C@H](N)C(C)C)C(=O)NCc1ccc(NC(=O)Nc2ccccc2C)cc1 [Compound 344]
21,< 0.05 µM,CC[C@H](C)[C@H](NC(=O)[C@H](CC(=O)O)NC(=O)[C@H](CC(C)C)NC(=O)Cc1ccc(NC(=O)Nc2ccccc2C)cc1)C(=O)O [Compound 345]
22,< 0.05 µM,Cc1cccc(NC(=O)Nc2ccc(CC(=O)N[C@@H](CC(C)C)C(=O)N[C@@H](CC(=O)O)C(=O)N[C@H](C(=O)N3CCC[C@H]3C(=O)O)C(C)C)cc2)n1 [Compound 346] ({X3-CO}-[X1]LDVP-OH)
23,> 10 µM,CNC(=O)C(C)(C)NC(=O)[C@H](CC(=O)O)NC(=O)[C@H](CC(C)C)NC(=O)Cc1ccccc1 [Compound 351] (PhAc-Leu-Asp-[Aib]-NHMe)
24,> 10 µM,CC(C)C[C@H](NC(=O)OCC1c2ccccc2-c2ccccc21)C(=O)N[C@@H](CC(=O)O)C(=O)N[C@H](C(=O)O)C(C)C [Compound 366] (Fmoc-Leu-Asp-Val-OH)
25,> 10 µM,COc1cccc(CC(=O)N[C@@H](CC(C)C)C(=O)N[C@@H](CC(=O)O)C(=O)N[C@H](C(=O)O)C(C)C)c1 [Compound 367]
